# Assay results: US4677108A, “4-oxo-pyrido[2,3-d]pyrimidinone derivatives” (Warner-Lambert Company, priority 1984, dated 1987)
# pEC50, pIC50: −log10 of the molar value.
# How the values were obtained:
# [1] = system: a. saphena (arteria saphena); test: Isolated smooth muscle: inhibition of K+-depolarization contraction of vessel rings, a. saphena; set-up: species or system rabbit; settings: Oryctolagus cuniculus, organ bath, mean diameter 0.5-1.0 mm, read-out: Concentration (IC50) effecting a semimaximal inhibition of the K+-depolarization contraction of vessel rings, a. saphena
# Description: (§1) Of rabbits (vessel ring segments, a basilaris, a. coronaria, a. saphena) are mounted in an organ bath in a way to allow the measurement of isometric contractions. Contractile activity is elicited by a potassium depolarization in Tyrode's solution. This experimetnal set-up is a well known standard model for the identification of substances blocking the calcium channels opened during the potassium depolarization (Fleckenstein,Calcium Antagonism in Heart and Smooth Muscle, J. Wiley & Sons, 1983).
# (§2) Concentrations (IC50, mol/l) of compounds
# (§3) effecting a semimaximal inhibition of the K+-
# (§4) depolarization contraction of vessel rings in the
# (§5) organ bath. A. bas. = arteria basilaris, a. cor. =
# (§6) arteria coronaria, a. saph. = arteria saphena of
# (§7) the rabbit; mean diameter 0.5-1.0 mm.
# [2] = system: a. coronaria (arteria coronaria); test: Isolated smooth muscle: inhibition of K+-depolarization contraction of vessel rings, a. coronaria; set-up: species or system rabbit; settings: organ bath, mean diameter 0.5-1.0 mm, read-out: Concentration (IC50) effecting a semimaximal inhibition of the K+-depolarization contraction of vessel rings, a. coronaria
# Description: as §1, §2, §3, §4, §5, §6, §7
# [3] = system: a. basilaris (arteria basilaris); test: Isolated smooth muscle: inhibition of K+-depolarization contraction of vessel rings, a. basilaris; set-up: species or system rabbit; settings: organ bath, mean diameter 0.5-1.0 mm, read-out: Concentration (IC50) effecting a semimaximal inhibition of the K+-depolarization contraction of vessel rings, a. basilaris
# Description: as §1, §2, §3, §4, §5, §6, §7
# [4] = system: isolated papillary muscles of the guinea-pig; test: Isolated papillary muscles: changes in the contraction amplitude; settings: field excitation 250/minute; for activation at 1 µM: at ED100, read-out: Δ% (percent change of contraction amplitude versus control) at ED100; for EC100: read-out: ED100 (effective concentration, maximal effect), contraction amplitude; for pEC50: read-out: ED50 (effective concentration, semimaximal effect), contraction amplitude
# Description: Papillary muscles from the left ventricle of the guinea-pig are mounted, like isolated vessels, in an organ bath in a way to allow the measurement of isometric contractions. Electric excitation is achieved by means of field excitation at a frequency of 250/minute (duration of excitation 10 msec., amplitude supramaximal).
# Changes in the contraction amplitude of isolated
# papillary muscles of the guinea-pig (excitation
# frequency 250/minute, duration of excitation 10 msec.,
# excitation amplitude 10-20 V field excitation). IC =
# inhibition concentration, ED = effective concentration
# in mol/l. Indices 50 and 100 correspond to semi-
# maximal and maximal effect. Δ% = percent change of
# contraction amplitude versus control.
# [5] = system: rats anesthetized with inactin; test: Anesthetized rat (inactin): blood pressure and heart rate; format: in vivo; settings: 100 mg/kg ID (n=3)
# Description: This test model using rats anesthetized with inactin served to test Example Number 1a in a dosage of 100 mg/kg ID (n=3). The heart rate remained unchanged whereas the blood pressure fell by 40% below the starting value (75 minutes PA).
# [6] = system: spontaneously hypertensive rats (SHR); test: Spontaneously hypertensive rat: systolic blood pressure after oral administration; format: in vivo
# Description: This test model employing hypertension of genetic origin served to test Example Number 1(a) for its antihypertensive efficacy.
# Effect of Example Number 1a on the systolic blood
# pressure of spontaneously hypertensive rats (SHR)
# [7] = Cavia porcellus, 10 msec., 10-20 V, maximal effect
# [8] = Cavia porcellus, 10 msec., 10-20 V, semimaximal effect
compound,measurement,setting,value
"CCOC(=O)C1=C(C)Nc2nc[nH]c(=O)c2C1c1ccccc1 (racemic) [Example 1, (±)-3,4,5,8-Tetrahydro-7-methyl-4-oxo-5-phenylpyrido[2,3-d]pyrimidine-6-carboxylic acid ethyl ester]",pIC50,[1],5.15
same,pIC50,[2],5.00
same,pIC50,[3],5.10
same,inhibition at 100 µM,"[4]; Cavia porcellus, at IC100, read-out: Δ% (percent change of contraction amplitude versus control) at IC100",27%
same,IC100,"[4]; Cavia porcellus, 10 msec., 10-20 V, maximal effect, read-out: IC100 (inhibition concentration, maximal effect), contraction amplitude",100 µM
same,pIC50,"[4]; Cavia porcellus, 10 msec., 10-20 V, semimaximal effect, read-out: IC50 (inhibition concentration, semimaximal effect), contraction amplitude",4.70
same,Δ% (percent change of contraction amplitude versus control) at IC50,[4]; at IC50,-13%
"CCOC(=O)C1=C(C)Nc2nc[nH]c(=O)c2C1c1ccccc1F (racemic) [Example 1a, (±)-5-(2-Fluorophenyl)-3,4,5,8-tetrahydro-7-methyl-4-oxo-pyrido[2,3-d]pyrimidine-6-carboxylic acid ethyl ester]",pIC50,[1],5.92
same,pIC50,[2],5.82
same,pIC50,[3],5.74
same,activation at 1 µM,[4]; Cavia porcellus,52%
same,EC100,[4]; [7],1 µM
same,pEC50,[4]; [8],7.82
same,Δ% (percent change of contraction amplitude versus control) at ED50,[4],+26%
same,heart rate,[5],unchanged
same,blood pressure fell below the starting value,[5]; 75 minutes PA,40%
same,Change of systol. blood pressure in percent,"[6]; 12.5 mg/kg oral, 30 min.",-11%
same,Change of systol. blood pressure in percent,"[6]; 12.5 mg/kg oral, 120 min.",-4%
same,Change of systol. blood pressure in percent,"[6]; 12.5 mg/kg oral, 240 min.",+2%
same,Change of systol. blood pressure in percent,"[6]; 12.5 mg/kg oral, 24 h",-1%
same,Change of systol. blood pressure in percent,"[6]; 25 mg/kg oral, 30 min.",-24%
same,Change of systol. blood pressure in percent,"[6]; 25 mg/kg oral, 120 min.",-2%
same,Change of systol. blood pressure in percent,"[6]; 25 mg/kg oral, 240 min.",-1%
same,Change of systol. blood pressure in percent,"[6]; 25 mg/kg oral, 24 h",+5%
same,Change of systol. blood pressure in percent,"[6]; 50 mg/kg oral, 30 min.",-32%
same,Change of systol. blood pressure in percent,"[6]; 50 mg/kg oral, 120 min.",-8%
same,Change of systol. blood pressure in percent,"[6]; 50 mg/kg oral, 240 min.",+1%
same,Change of systol. blood pressure in percent,"[6]; 50 mg/kg oral, 24 h",+4%
same,Change of systol. blood pressure in percent,"[6]; 100 mg/kg oral, 30 min.",-40%
same,Change of systol. blood pressure in percent,"[6]; 100 mg/kg oral, 120 min.",-19%
same,Change of systol. blood pressure in percent,"[6]; 100 mg/kg oral, 240 min.",+2%
same,Change of systol. blood pressure in percent,"[6]; 100 mg/kg oral, 24 h",-4%
same,antihypertensive effect after oral administration,"[6]; oral, result in words","good and, dose-dependent, lasting antihypertensive effect"
"CCOC(=O)C1=C(C)Nc2nc[nH]c(=O)c2C1c1ccccc1[N+](=O)[O-] (racemic) [Example 1b, (±)-3,4,5,8-Tetrahydro-7-methyl-5-(2-nitrophenyl)-4-oxo-pyrido[2,3-d]pyrimidine-6-carboxylic acid ethyl ester]",pIC50,[2],~6.00
same,pIC50,[3],~6.40
"CCOC(=O)C1=C(C)Nc2ncn(C(C)C)c(=O)c2C1c1ccccc1F (racemic) [Example 3, (±)-5-(2-Fluorophenyl)-3,4,5,8-tetrahydro-3-isopropyl-7-methyl-4-oxo-pyrido[2,3-d]pyrimidine-6-carboxylic acid ethyl ester]",pIC50,[1],5.05
same,pIC50,[2],4.70
same,pIC50,[3],4.70
same,activation at 1 µM,[4]; Cavia porcellus,30%
same,EC100,[4]; [7],1 µM
same,pEC50,[4]; [8],7.66
same,Δ% (percent change of contraction amplitude versus control) at ED50,[4],+15%
"CCOC(=O)C1=C(C)Nc2ncn(C(C)C)c(=O)c2C1c1ccccc1 (racemic) [Example 3a, (±)-3,4,5,8-Tetrahydro-3-isopropyl-7-methyl-4-oxo-5-phenyl-pyrido[2,3-d]pyrimidine-6-carboxylic acid ethyl ester]",pIC50,[2],7.35
same,pIC50,[3],7.40
